The values below come from PMC6271009, “Design and Synthesis of Thiazolo[5,4-f]quinazolines as DYRK1A Inhibitors, Part II” (Molecules, 2014).

One data set deals with T1, DYRK1B (Homo sapiens, UniProt Q9Y463).
T1 construct: Purified recombinant kinase was incubated with serial 3-fold dilutions of test compounds; purchased Reaction Biology Corporation
In words: DYRK1B kinase assay, Reaction Biology Corporation HotSpot technology (33P ATP). The class given is biochemical. To be noted: purified recombinant kinase, 10 µM ATP, 120 min, room temperature.

A further data set addresses T2, DYRK1A (Homo sapiens, UniProt Q13627).
T2 construct: Purified recombinant kinase was incubated with serial 3-fold dilutions of test compounds; purchased Reaction Biology Corporation
In words: DYRK1A kinase assay, Reaction Biology Corporation HotSpot technology (33P ATP). The class given is biochemical. To be noted: for IC50: purified recombinant kinase, 10 µM ATP, 120 min, room temperature.

Data set [1] has as its system patient-derived ovarian cancer ascites spheroids. To be noted: cited from earlier work.
The next data set has as its system Panc1 xenograft. To be noted: cited from earlier work.
The subject of data set [2] is B- and T-ALL cell lines and primary human pediatric ALL samples. Set-up: method as in doi:10.1182/blood-2013-06-507368. To be noted: cited from earlier work.

T1 sequence (Q9Y463 whole entry): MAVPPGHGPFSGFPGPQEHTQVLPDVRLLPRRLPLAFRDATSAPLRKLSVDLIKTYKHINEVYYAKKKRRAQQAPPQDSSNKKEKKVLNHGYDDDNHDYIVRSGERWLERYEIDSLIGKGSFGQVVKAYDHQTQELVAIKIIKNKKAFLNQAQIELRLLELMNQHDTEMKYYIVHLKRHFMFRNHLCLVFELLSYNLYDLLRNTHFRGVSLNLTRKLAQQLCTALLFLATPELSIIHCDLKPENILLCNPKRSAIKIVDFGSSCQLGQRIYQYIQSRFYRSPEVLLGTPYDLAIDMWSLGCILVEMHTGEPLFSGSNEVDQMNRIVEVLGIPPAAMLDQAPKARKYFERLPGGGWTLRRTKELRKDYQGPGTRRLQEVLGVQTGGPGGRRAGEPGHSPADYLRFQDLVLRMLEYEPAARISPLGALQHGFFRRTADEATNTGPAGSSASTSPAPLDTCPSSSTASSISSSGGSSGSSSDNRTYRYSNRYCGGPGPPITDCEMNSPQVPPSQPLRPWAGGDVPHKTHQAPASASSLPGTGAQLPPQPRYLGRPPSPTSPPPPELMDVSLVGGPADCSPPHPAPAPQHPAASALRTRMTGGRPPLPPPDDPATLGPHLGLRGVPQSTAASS

What is called IC50 is the concentration at which inhibition is half-maximal. As for `COC(=N)c1nc2ccc3ncnc(Nc4ccc(OC)cc4)c3c2s1` [Compound 7a, Methyl 9-(4-methoxyphenylamino)thiazolo[5,4-f]quinazoline-2-carbimidate], the IC50 at DYRK1B was determined as 0.0192 µM; at DYRK1A, 0.0131 µM. As for `COC(=N)c1nc2ccc3ncnc(Nc4ccc5c(c4)OCO5)c3c2s1` [Compound 7b, methyl 9-(benzo[d][1,3]dioxol-5-ylamino)thiazolo[5,4-f]quinazoline-2-carbimidate], the IC50 at DYRK1B is 0.0042 µM.

In the case of `COC(=N)c1nc2ccc3ncnc(Nc4ccc5c(c4)OCCO5)c3c2s1` [Compound 7c, Methyl 9-(2,3-dihydrobenzo[b][1,4]dioxin-6-ylamino)thiazolo[5,4-f]quinazoline-2-carbimidate], the IC50 on DYRK1A amounted to 0.008 µM. Consider `COC(=N)c1nc2ccc3ncnc(Nc4ccc(OC)c(OC)c4)c3c2s1` [Compound 7e, Methyl 9-(3,4-dimethoxyphenylamino)thiazolo[5,4-f]quinazoline-2-carbimidate], for which the IC50 on DYRK1B worked out at 0.161 µM.

Regarding `COC(=N)c1nc2ccc3ncnc(Nc4ccc(OC)cc4OC)c3c2s1` [Compound 7f, Methyl 9-(2,4-dimethoxyphenylamino)thiazolo[5,4-f]quinazoline-2-carbimidate], the IC50 on DYRK1B is 0.0111 µM; at DYRK1A, 0.00953 µM. In the case of `COC(=N)c1nc2ccc3ncnc(Nc4cc(OC)cc(OC)c4)c3c2s1` [Compound 7g, Methyl 9-(3,5-dimethoxyphenylamino)thiazolo[5,4-f]quinazoline-2-carbimidate], the IC50 on DYRK1A was 0.299 µM.

Turning to `COC(=N)c1nc2ccc3ncnc(Nc4ccc(OC)c([N+](=O)[O-])c4)c3c2s1` [Compound 7h, Methyl 9-(4-methoxy-3-nitrophenylamino)thiazolo[5,4-f]quinazoline-2-carbimidate], the half-maximal inhibitory concentration (IC50) on DYRK1A amounted to 0.123 µM. In the case of `COC(=N)c1nc2ccc3ncnc(Nc4ccc(O)c([N+](=O)[O-])c4)c3c2s1` [Compound 7k, Methyl 9-(4-hydroxy-3-nitrophenylamino)thiazolo[5,4-f]quinazoline-2-carbimidate], the values for the IC50 on DYRK1B and at DYRK1A were 0.00568 µM and 0.00491 µM, respectively. Take `COC(=N)c1nc2ccc3ncnc(Nc4cc(OC)c(OC)c(OC)c4)c3c2s1` [Compound 7l, Methyl 9-(3,4,5-trimethoxyphenylamino)thiazolo[5,4-f]quinazoline-2-carbimidate]: the values for the IC50 at DYRK1B and on DYRK1A were 0.486 µM and 0.436 µM, respectively. As for `COC(=N)c1nc2ccc3ncnc(Nc4ccc(Cl)cc4)c3c2s1` [Compound 8a, Methyl 9-(4-chlorophenylamino)thiazolo[5,4-f]quinazoline-2-carbimidate], the values for the half-inhibitory concentration (IC50) on DYRK1B and at DYRK1A were 0.00474 µM and 0.00113 µM, respectively. Regarding `COC(=N)c1nc2ccc3ncnc(Nc4cccc(Cl)c4)c3c2s1` [Compound 8b, Methyl 9-(3-chlorophenylamino)thiazolo[5,4-f]quinazoline-2-carbimidate], the results for the IC50 on DYRK1B and on DYRK1A were 0.0188 µM and 0.0136 µM, respectively.

In the case of `COC(=N)c1nc2ccc3ncnc(Nc4ccc(Cl)cc4Cl)c3c2s1` [Compound 8c, Methyl 9-(2,4-dichlorophenylamino)thiazolo[5,4-f]quinazoline-2-carbimidate], the values for the IC50 on DYRK1B and at DYRK1A were 0.00028 µM and 0.00022 µM, respectively. The “Activity in patient-derived ovarian cancer ascites spheroids” value in data set [1] is listed as “promising activities”. Further, in the data set with Panc1 xenograft, the “Toxicity in mice (Panc1 xenograft model)” value is “without detectable toxicity”. Moreover, the “In vivo activity in Panc1 xenograft model” value with Panc1 xenograft (mice) was “in vivo activities”. In the case of `COC(=N)c1nc2ccc3ncnc(Nc4ccc(Cl)c(Cl)c4)c3c2s1` [Compound 8d, Methyl 9-(3,4-dichlorophenylamino)thiazolo[5,4-f]quinazoline-2-carbimidate], the half-maximal inhibitory concentration (IC50) at DYRK1A is 0.0668 µM. Consider `COC(=N)c1nc2ccc3ncnc(Nc4ccc(F)cc4)c3c2s1` [Compound 8e, Methyl 9-(4-fluorophenylamino)thiazolo[5,4-f]quinazoline-2-carbimidate], for which the IC50 at DYRK1B amounted to 0.00964 µM; on DYRK1A, 0.00606 µM. Consider `COC(=N)c1nc2ccc3ncnc(Nc4ccc(Br)cc4F)c3c2s1` [Compound 8f, Methyl 9-(4-bromo-2-fluorophenylamino)thiazolo[5,4-f]quinazoline-2-carbimidate], for which the half-maximal inhibitory concentration (IC50) at DYRK1B was found to be 0.00655 µM; on DYRK1A it was 0.0036 µM. As for `COC(=N)c1nc2ccc3ncnc(Nc4ccc(OC)cc4F)c3c2s1` [Compound 8i, Methyl 9-(2-fluoro-4-methoxyphenylamino)thiazolo[5,4-f]quinazoline-2-carbimidate], the “Apoptosis induction in B- and T-ALL cell lines and primary human pediatric ALL samples” value in data set [2] is on record as “dose-dependently induce apoptosis”. Also, the “Apoptosis of primary ALL cells resistant to cytarabine” value in data set [2] (cytarabine-resistant primary ALL cells) is “induced apoptosis”. For the compound `COC(=N)c1nc2ccc3ncnc(Nc4ccc(O)c(F)c4)c3c2s1` [Compound 8j, Methyl 9-(3-fluoro-4-hydroxyphenylamino)thiazolo[5,4-f]quinazoline-2-carbimidate], the IC50 is 0.011 µM at DYRK1B and 0.00863 µM on DYRK1A. For the compound `COC(=N)c1nc2ccc3ncnc(Nc4ccc(F)cc4F)c3c2s1` [Compound 8k, Methyl 9-(2,4-difluorophenylamino)thiazolo[5,4-f]quinazoline-2-carbimidate], the IC50 on DYRK1B stood at 0.00107 µM; at DYRK1A, 0.00094 µM. With `COC(=N)c1nc2ccc3ncnc(Nc4ccc(C(F)(F)F)cc4)c3c2s1` [Compound 8l, Methyl 9-(4-(trifluoromethyl)phenylamino)thiazolo[5,4-f]quinazoline-2-carbimidate], the IC50 was 0.186 µM at DYRK1B and 0.0548 µM on DYRK1A. With `COC(=N)c1nc2ccc3ncnc(Nc4ccccc4)c3c2s1` [Compound 9a, Methyl 9-(phenylamino)thiazolo[5,4-f]quinazoline-2-carbimidate], the IC50 at DYRK1B is 0.00348 µM; on DYRK1A, 0.00181 µM. Taken in the same sequence, the figures for `COC(=N)c1nc2ccc3ncnc(Nc4ccc(C)cc4)c3c2s1` [Compound 9b, Methyl 9-(p-tolylamino)thiazolo[5,4-f]quinazoline-2-carbimidate] were 0.00283 µM and 0.00098 µM. Regarding `COC(=N)c1nc2ccc3ncnc(Nc4ccc(C(C)(C)C)cc4)c3c2s1` [Compound 9c, Methyl 9-(4-tert-butylphenylamino)thiazolo[5,4-f]quinazoline-2-carbimidate], the IC50 came out at 0.0938 µM at DYRK1B and 0.039 µM at DYRK1A. Take `C#Cc1cccc(Nc2ncnc3ccc4nc(C(=N)OC)sc4c23)c1` [Compound 9d, Methyl 9-(3-ethynylphenylamino)thiazolo[5,4-f]quinazoline-2-carbimidate]: the IC50 at DYRK1B came out at 0.0463 µM; at DYRK1A, 0.0408 µM. Consider `COC(=N)c1nc2ccc3ncnc(Nc4ccc(C#N)cc4)c3c2s1` [Compound 9e, Methyl 9-(4-cyanophenylamino)thiazolo[5,4-f]quinazoline-2-carbimidate], for which the results for the half-maximal inhibitory concentration (IC50) on DYRK1B and on DYRK1A were 0.00769 µM and 0.00389 µM, respectively.

`COC(=N)c1nc2ccc3ncnc(Nc4cccc(C#N)c4)c3c2s1` [Compound 9f, Methyl 9-(3-cyanophenylamino)thiazolo[5,4-f]quinazoline-2-carbimidate]: the values for the IC50 on DYRK1B and at DYRK1A were 0.072 µM and 0.0427 µM, respectively. Take `COC(=N)c1nc2ccc3ncnc(Nc4ccc(N(C)C)cc4)c3c2s1` [Compound 9h, Methyl 9-(4-(dimethylamino)phenylamino)thiazolo[5,4-f]quinazoline-2-carbimidate]: the IC50 on DYRK1B was 0.0643 µM; at DYRK1A, 0.0356 µM.

In the case of `CCOC(=N)c1nc2ccc3ncnc(Nc4ccc5c(c4)OCO5)c3c2s1` [Compound 12a, Ethyl 9-(benzo[d][1,3]dioxol-5-ylamino)thiazolo[5,4-f]quinazoline-2-carbimidate], the IC50 at DYRK1B came to 0.00772 µM; on DYRK1A, 0.00602 µM. Broadly, the melting point is the temperature of the solid-liquid transition. With `CC(C)OC(=N)c1nc2ccc3ncnc(Nc4ccc5c(c4)OCO5)c3c2s1` [Compound 12b, Isopropyl 9-(benzo[d][1,3]dioxol-5-ylamino)thiazolo[5,4-f]quinazoline-2-carbimidate], the melting point lay within 224 to 226 °C. Besides, the IC50 on DYRK1B is 0.218 µM. The half-inhibitory concentration (IC50) on DYRK1A came to 0.125 µM.

`N=C(OCc1ccccc1)c1nc2ccc3ncnc(Nc4ccc5c(c4)OCO5)c3c2s1` [Compound 12c, Benzyl 9-(benzo[d][1,3]dioxol-5-ylamino)thiazolo[5,4-f]quinazoline-2-carbimidate]: the IC50 on DYRK1B came to 0.0373 µM; at DYRK1A, 0.0339 µM. `COC(=O)c1nc2ccc3ncnc(Nc4ccc5c(c4)OCO5)c3c2s1` [Compound 13, Methyl 9-(benzo[d][1,3]dioxol-5-ylamino)thiazolo[5,4-f]quinazoline-2-carboxylate]: the “Affinity for DYRK1A, result in words” value at DYRK1A (compared with parent methyl carbimidate / secondary amine analogs) was “mostly inactive”. `CC(C)(C)CNc1ncnc2ccc(-c3ccc4c(c3)OCO4)cc12` [NCGC-00189310, reference compound]: the IC50 at DYRK1B worked out at 0.0206 µM; on DYRK1A it was 0.0022 µM.
